Measurements as given in patent publication US4547521A, “16-Methoxy-16-methyl prostaglandin E1 derivatives, a process for preparing them and their use as gastroprotective agents” (Gruppo Lepetit S.p.A., priority 1979, dated 1985).

Assays:
[1] = test system: gastric ulcers caused by indomethacin; assay: Cytoprotective activity: inhibition of gastric ulcers caused by indomethacin in rats, oral; assay type: in vivo; conditions: indomethacin i.p.
Procedure: More particularly, the cytoprotective activity of the compounds of the present invention was evaluated on the basis of their effectiveness in inhibiting the formation and reducing the severity of gastric ulcers in rats caused by the administration of a high dose of 1-(p-chlorobenzoyl)-5-methoxy-2-methyl-3-indolyl-acetic acid (indomethacin). The cytoprotective activity occurred at oral doses which are by far lower than those which cause inhibition of the gastric acid secretion. In these experiments the rats were deprived of food the day before the beginning of the experiments but water was given ad libitum. The compounds to be tested were administered by the oral route as a suspension in 0.5% aqueous methocel solution (5 animals/dose), while indomethacin was administered intraperitoneally at […] in the same vehicle. Another group of rats (controls) was administered only with the ulcerogenic agent. The cytoprotective properties of the compounds of this invention were then expressed as "percent inhibition of the ulcers with respect to controls", which can be easily calculated by the following ratio: [formula] wherein A.U.D.(controls) is the average ulceration degree of the stomachs of the controls and A.U.D.(treated animals) is the average ulceration degree of the stomachs of the animals which received both indomethacin and the compound to be tested.
The A.U.D.s are calculated according to the method described by Thuillier et al. Chim. Ther., 3, 53, 1968, by examining the stomachs of the laboratory animals for possible ulcerations and assigning a score from 0 to 4 which depends on the number and the severity of the observed ulcerations: 0 indicates absence of any ulceration on the gastric wall; 4 indicates perforating ulcerations. A single ulceration degree (S.U.D.) is then calculated for each single stomach. The sum of the S.U.D.s divided by the number of the animals affords the A.U.D. of the stomachs of each group of animals.

[2] = test system: gastric hypersecretion induced by histamine; assay: Inhibition of histamine-induced gastric hypersecretion in anesthetized perfused-stomach rats (Ghosh and Schild), intravenous; assay type: in vivo; conditions: i.v., histamine 1.5 mg/kg/h
Procedure: The compounds of the present invention are potent inhibitors of also gastric hypersecretion also when administered intravenously. This has been confirmed by evaluating the effects, on gastric hypersecretion induced by histamine, produced by a single intravenous administration to anesthetized rats of the compounds of the present invention. The experiments were carried out essentially according to the methodology described by Ghosh and Schild in Brit. J. Pharm. (1958), 13, 54-61. According to this technique the rat is anesthetized with urethane and its stomach is perfused with a dilute sodium hydroxide solution (N/4000 NaOH at a rate of about 1 ml/min) by way of the oesophagus. The pH of the fluid emerging from a cannula in the pylorus is continuously recorded by means of a glass-electrode connected to a direct reading pH-meter and thence to a recorder. In passing through the stomach, the perfusate collects sufficient buffer to act as an approximately linear buffer system over the relevant range, so that the change in pH becomes a measure of acid secretion.
When the N/4000 NaOH solution is collected after having passed through the unstimulated stomach it gives an initial value of about 6-6.5 (pHunstimulated stomach). A secretory stimulant, histamine in the present case, is then administered intravenously by continuous infusion at a dose of 1.5 mg/kg/h. After a few minutes the pH begins to fall and after about 10 to 20 minutes the secretory effect reaches its maximum and the pH its lowest value (pHhistamine stimulated stomach) which, owing to the continuous infusion of histamine, remains constant. The compounds to be tested are then administered intravenously and the pH is continuously recorded. By considering the highest pH value recorded, which evidences the maximum antisecretory effect reached with the test compound (pHM.A.E.) and using the following equation [formula] the percent inhibition of gastric acid secretion may be easily calculated.

gastric acid secretion = assay: Inhibition of gastric acid secretion in dogs, histamine at fixed dose of 160 μg/kg/h, oral; assay type: in vivo, mongrel dogs; conditions: histamine fixed dose 160 μg/kg/h
Procedure: The compounds of the present invention are also potent inhibitors of the gastric secretion when they are administered to laboratory animals by the oral route. […] The gastric antisecretory properties of these compounds when administered per os were evaluated on the basis of their effectiveness in inhibiting the hyperacidity induced by histamine in dogs. Histamine, which is a potent stimulator of the acidic gastric secretion (see Bertaccini et al., Eur. Journ. Pharmacol., 28, 360, 1974), was administered intravenously by continuous infusion during the experiments.
A group of five mongrel dogs was used in the experiment. […]
To evaluate the gastric antisecretory oral activity of the compounds of the invention, they were administered by gavage into the main stomach at a given dosage, expressed as μg/kg/h, dissolved in 1 ml of physiological solution, 60 minutes before the secreting agent. […]
The compounds of the present invention are potent inhibitors of also gastric hypersecretion also when administered intravenously. […] The pH of the fluid emerging from a cannula in the pylorus is continuously recorded by means of a glass-electrode connected to a direct reading pH-meter and thence to a recorder. […]

Structure (SMILES): CCCCC(C)(OC)C(O)/C=C/[C@H]1[C@H](O)CC(=O)[C@@H]1CCCCCCC(=O)OC (single isomer, unassigned) [Example 1F, 11α,15-dihydroxy-16-methoxy-16-methyl-9-oxo-prosta-13(E)-ene-1-oic acid methyl ester]
- percent inhibition of the ulcers with respect to controls ([1]; 3 μg/kg (lowest dose tested)): about 43%
- ED50 ([1]; Rattus norvegicus, calculated by extrapolation, read-out: ED50 (dose which provokes an inhibition of the ulcers with respect to controls of 50%)): 6 µg/kg
- cytoprotective activity (in words) [1]: very active even at very low doses
- % Inhibition of the acid gastric secretion ([2]; 2.5 μg/kg): 15%
- % Inhibition of the acid gastric secretion ([2]; 10 μg/kg): 63%
- % Inhibition of the acid gastric secretion ([2]; 20 μg/kg): 90%
- % Inhibition of the acid gastric secretion ([2]; 50 μg/kg): 100%
- block of gastric acid secretion (gastric acid secretion): about 60%
